In experiment [1] the test system is dispersed islet cells of donors with T1D. The experiment is described as follows: Glucagon secretion from dispersed islet cells of donors with T1D. The format is cell-based, human. Conditions: for Secretion of glucagon: dispersed islet cells, T1D donors, one value per donor, Figure 2H. The procedure:
Pancreata of nondiabetic C57BL/6J mice were digested using collagenase P (Roche Diagnostics, catalog 11213873001), and islets were manually picked up using a stereomicroscope (ZEISS Stemi 305). […] Isolated mouse islets or provided human islets were dispersed as described ([28]). Briefly, 100–120 islets were washed 2 times using modified HBSS, then dispersed in 600 μL Accutase (Innovative Cell Technologies, catalog AT-104) by gently pipetting up and down for 7 minutes at 37°C. […] Following refreshing of KRBH, cells were dispensed in 8 microfuge tubes (2,000 cells/tube) and treated with WCDD301, preclustered Ephrin-A5 Fc, or preclustered Fc in the presence or absence of the competitive inhibitor of EphA4 receptor, rhyncophylline ([60]) (MilliporeSigma, catalog SML2345). In the presence or absence of these effectors, secretion assay was performed sequentially as shown in Supplemental Table 5. […] Preclustering of Ephrin-A5 Fc was done by mixing Ephrin-A5 Fc or Fc alone (BioLegend, catalog 790102) with anti-Fc antibody (Invitrogen, catalog A16086) (1:10 molar ratio) 20 minutes before treatment ([62]). […] Shedding of cleaved EphA4 was measured from the cell culture medium. Experiments were performed by dispersion of 200 islets, and EphA4 levels in media were measured by EphA4 ELISA (ABclonal, catalog RK06572).
(§1) The Integrated Islet Distribution Program provided us human donor islets with their characteristics (Supplemental Table 6). Islets were centrifuged at 500g for 3 minutes, resuspended in CMRL 1066 medium (Gibco, catalog 1150-037) containing 11 mM glucose, and rested in an incubator overnight.
(§2) For the hormone secretion assay, islets or dispersed islet cells were adapted in KRBH buffer containing 11 mM glucose for 1 hour. Then, after 2 washes in HBSS containing 11 mM glucose, islets or cells were treated in the following sequential order in the presence or absence of WCDD301: incubation in KRBH (1 mM glucose, 30 minutes) followed by medium collection, incubation in KRBH (11 mM glucose, 30 minutes) followed by medium collection.

Experiment [2] concerns isolated islets of donors with T1D. In words: Insulin secretion from isolated islets of donors with T1D.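 For Secretion of insulin: insulin concentration in collected medium by Lumit immunoassay.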 To be noted: for Secretion of insulin: isolated islets, T1D donors, one value per donor, Figure 2I. In kind it is cell-based, human. How it is done:
as §1, §2

Experiment [3] deals with α cells of NOD mice islets. In words: F-actin signal in α cells of pancreatic slices of NOD mice. The format is in vivo, mouse. Conditions: WCDD301-treated NOD mice; diabetic 47.14 ± 4.70, nondiabetic 79.14 ± 4.63. The procedure: Pancreata of NOD mice (females, n = 3 per group) from nondiabetic, diabetic placebo-treated, and diabetic WCDD301-treated cohorts were excised; fixed in 10% buffered formalin for 5 days; and treated with ethanol 70% for 2 days before paraffin embedding. The paraffin-embedded tissue blocks were longitudinally sectioned in 5 μm slices and fixed on microscope slides. Following deparaffinization (through incubation in graded xylene, graded ethanol, and PBS), permeabilization (using 0.1% Triton X-100 in PBS), and background blocking (using 5% BSA solution containing 0.1% Tween 20), samples were incubated with primary antibodies (mouse anti-glucagon, Abcam, catalog ab10988; above-mentioned rabbit anti-EphA4), secondary antibodies (goat anti-mouse IgG Alexa Fluor 488; Invitrogen, catalog A-11001; goat anti-rabbit IgG Alexa Fluor 633, Invitrogen, catalog A-21070), SPY555-Actin (Cytoskeleton, catalog SC202), and DAPI. Image acquisition and analysis were performed as for dispersed islet cells. […] ROIs were manually drawn around each islet, background signal was removed by thresholding, and intensity of glucagon signal was determined and normalized by the islet surface area. To determine sizes of α cells per islet, ROIs were manually drawn around α cells in each islet. […]

In experiment [4] the test system is human dispersed islet cells. The experiment is described as follows: Immunofluorescence: F-actin intensity in glucagon+ human dispersed islet cells.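 For F-actin intensity: ImageJ intensity within ROI drawn around each glucagon+ cell.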 The format is cell-based. The procedure: Coverslips were treated with WCDD301, preclustered Ephrin-A5 Fc, or preclustered Fc in the following sequential order: KRBH (11 mM glucose, 30 minutes), KRBH (1 mM glucose, 60 minutes), KRBH (1 mM glucose, 30 minutes), and KRBH (11 mM glucose, 60 minutes). After treatment, coverslips were washed once in PBS, fixed in 2% paraformaldehyde in PBS (30 minutes), and again washed in PBS. […] Following wash in PBS, coverslips were incubated in a mixture of Alexa Fluor 555 Phalloidin (Cell Signaling Technology, catalog 8953) and secondary antibodies (goat anti-rabbit Alexa Fluor 488, catalog A-21094, 1:1,000, Molecular Probes; and goat anti-mouse Alexa Fluor 633, catalog A21052, 1:1,000, Life Technologies) for 1 hour at RT. Both primary and secondary antibodies were diluted in blocking buffer containing 0.05% Tween 20. Coverslips were washed using PBS and counterstained by using DAPI (1:1,000) for 10 minutes. Following 2 washes in PBS, coverslips were mounted on glass slides using ProLong Glass Antifade Mountant (Invitrogen, catalog P36980). Images were captured using the Zeiss LSM880 microscope with a Plan-Apochromat 63× 1.4 NA objective lens by setting dual-band dichroic/filter for 405, 488, 561, and 633 nm laser excitation. For each slide, 25–30 fields of view were scanned, and in each field of view, 3–5 cells were imaged. […] Values of intensity were compared among groups using 1-way ANOVA, α = 0.05.

Each structure is given as a SMILES string. Several values for one entry are separate records, joined by “and”; a condition that tells them apart may be missing. Identical values can stand only once.

For `CC(=O)OCC(N)(COC(C)=O)COC(C)=O` [WCDD301, 2-(acetoxymethyl)-2-aminopropane-1,3-diyl diacetate], in experiment [1] (dispersed islet cells from donors with long-standing T1D), the “Effect on glucagon secretion” value is on record as “reduced glucagon secretion”. The Secretion of glucagon was 13.445 and 14.59 in experiment [1] (1 mM glucose); 27.55 and 31.85 in experiment [1] (11 mM glucose). Also, the “Effect on insulin secretion” value in experiment [2] (islets from donors with long-standing T1D) is “no effect on the minimal residual insulin secretion”. The Secretion of insulin in experiment [2] (1 mM glucose) is 0.055 and 0.09; in experiment [2] (11 mM glucose), 0.07 and 0.06. Further, the “F-actin signal within α cells” value in experiment [3] is reported as 74.50 ± 4.80 AU. Besides, the F-actin intensity in experiment [4] (human cells, individual values, Figure 3E) is 9.0 and 7.2 and 6.5 and 10.4 and 8.2 and 4.2 and 10.3 and 9.6 and 6.8. In addition, the “Effect on intracellular F-actin” value in experiment [4] (α cells, human donors) was “increased intracellular F-actin density”.
